Patent US20200215204A1, “EARLY-ONSET PARKINSON'S DISEASE MODEL: (D331Y) PLA2G6 KNOCKIN MODEL, PLATFORM AND METHOD FOR DRUG SCREENING, AND KIT OF DETECTION” (Chang Gung Memorial Hospital, Linkou, priority 2019, published 2020)

Columns and labels:
[1] = system: PLA2G6^D331Y/D331Y knockin mice; test: Locomotor activity in open field boxes after L-DOPA in homozygous (D331Y) PLA2G6 knockin mice; assay type: in vivo; conditions: about 1.5 mg/kg; homozygous PLA2G6^D331Y/D331Y knockin mouse at about 9 months old
Description: Behavioral Assessments The locomotor activity of WT or (D331Y) PLA2G6 KI mice were evaluated in open field boxes for 60 minutes. Movements of animal were recorded and assessed with the TopScan video tracking system (Clever Sys., Inc.). The locomotor activity of mouse was examined by measuring the velocity and distance. To evaluate the therapeutic benefit of L-DOPA in PLA2G6^D331Y/D331Y mice, benserazide (0.5 mg/kg) and L-DOPA (1.5 mg/kg) were intraperitoneally administered into animal. The locomotor activity was recorded 40 min after the injection.

[2] = system: MPTP-induced mice model of PD; conditions: 25 mg/kg for 21 days; MPTP-induced mice model of PD (Zhao T. T. et al.); cited from earlier work
[3] = system: PD patients carrying PLA2G6 mutations; conditions: cited from earlier work

Compound: N[C@@H](Cc1ccc(O)c(O)c1)C(=O)O [L-DOPA]
- symptoms of motor deficit [1]: significantly improve symptoms of said motor deficit
- therapeutic effect [2]: significant therapeutic effect
- effectiveness in treating patients [3]: effective
